Measurements: patent US20260193179A9 (priority 2018, published 2026)
Structures can show the parent of a compound that is named as a salt.

Tested on: Lectin Pathway
Experiment: Lectin Pathway Activation Assay in Human Serum (mannan-coated ELISA, C3c detection)
Assay type: biochemical
Conditions: 1% human serum
Protocol: Microtiter ELISA plate was coated with mannan from Saccharomyces cerevisiae (Sigma-Aldrich, M7504) for overnight at 4° C. in coating buffer [15 mM Na2CO3, 35 mM NaHCO3]. Plate was blocked with 1% bovine serum albumin (BSA) (Sigma-Aldrich, A3294) in Tris-buffered Saline (TBS) [10 mM Tris-HCl, 140 mM NaCl] for 2 hours at room temperature. […] 100 μL of this mixture were then added to the plate and plate was incubated at 37° C. for up to an hour with gentle shaking, 200 rpm. After that, plate was washed thrice in wash buffer [TBS containing 5 mM CaCl2) and 0.05% Tween-20] and 100 μL of rabbit anti human C3c (Dako, A0062) diluted 1:5000 in wash buffer were added and incubated at 37° C. for 30 minutes.

IC50	Compound
< 500 nM	C[C@H](NC(=O)[C@H](N)CCc1ccccc1)C(=O)NCc1ccc(C(=N)N)cc1 [compound 1024]
50 to 5000 nM	N=C(N)c1ccc(CNC(=O)[C@@H]2CCCN2C(=O)[C@H](N)C2CCCCC2)cc1 [compound 1027]
500 to 50000 nM	N=C(N)c1ccc(CNC(=O)[C@@H]2CCN2C(=O)[C@H]2Cc3ccccc3CN2)cc1 [compound 1034]
< 500 nM	C[C@H](NC(=O)[C@H]1C[C@H](c2ccccc2)CN1)C(=O)NCc1ccc(C(=N)N)cc1 [compound 1036]
< 500 nM	N=C(N)c1ccc(CNC(=O)[C@@H]2CCN2C(=O)[C@H](N)CCc2ccccc2)cc1 [compound 1038]
50 to 5000 nM	Cc1ccc(CC[C@@H](N)C(=O)N[C@@H](C)C(=O)NCc2ccc(C(=N)N)cc2)cc1 [compound 1043]
50 to 5000 nM	C[C@H](NC(=O)[C@H](N)CCc1cccc(F)c1)C(=O)NCc1ccc(C(=N)N)cc1 [compound 1048]
50 to 5000 nM	N=C(N)c1ccc(CNC(=O)[C@@H]2CCN2C(=O)[C@H](N)C2Cc3ccccc3C2)cc1 [compound 1058, (S)-1-((R)-2-Amino-2-(2,3-dihydro-1H-inden-2-yl)acetyl)-N-(4-carbamimidoylbenzyl)azetidine-2-carboxamide]
50 to 5000 nM	C[C@H](NC(=O)[C@H](N)C1Cc2ccccc2C1)C(=O)NCc1ccc2nc(N)[nH]c2c1 [compound 1059]
50 to 5000 nM	C[C@H](NC(=O)[C@H](N)CCc1ccc(Cl)cc1)C(=O)NCc1ccc(C(=N)N)cc1 [compound 1080]
50 to 5000 nM	C[C@H](NC(=O)[C@H](N)Cc1cccc2ccccc12)C(=O)NCc1ccc(C(=N)N)cc1 [compound 1092]
500 to 50000 nM	CN(CC(=O)NCc1ccc(C(=N)N)cc1)C(=O)[C@H](NCC(=O)O)C1CCCCC1 [compound 1096]
500 to 50000 nM	C[C@@H](C(=O)NCc1ccc(C(=N)N)cc1)N(C)C(=O)[C@H](NCC(=O)O)C1CCCCC1 [compound 1107]
< 500 nM	C[C@H](NC(=O)[C@@H](CCc1ccccc1)NCC(=O)O)C(=O)NCc1ccc(C(=N)N)cc1 [compound 1110]
< 500 nM	N=C(N)c1ccc(CNC(=O)[C@@H]2CCN2C(=O)[C@@H](CCc2ccccc2)NCC(=O)O)cc1 [compound 1124]

Compound	IC50
N=C(N)c1ccc(CNC(=O)[C@@H]2CCN2C(=O)[C@H](NCC(=O)O)C2CCCCC2)cc1 [compound 999, melagatran, reference compound]	500 to 50000 nM
C[C@H](NC(=O)[C@H](N)CCc1ccc(F)cc1)C(=O)NCc1ccc(C(=N)N)cc1 [compound 1047]	50 to 5000 nM

Same assay, conditions: 1% human serum, mannan-coated plate

Compound	IC50
CC(=O)Nc1ccc(CCN[C@H](CCc2ccccc2)C(=O)N[C@@H](C)C(=O)NCc2ccc(N)nc2C)cc1 [compound 1368, (R)-2-((4-Acetamidophenethyl)amino)-N—((S)-1-(((6-amino-2-methylpyridin-3-yl)methyl)amino)-1-oxopropan-2-yl)-4-phenylbutanamide]	50 to 500 nM
Cc1nc(N)ccc1CNC(=O)[C@H](C)NC(=O)[C@H]1C[C@H](Cc2ccccc2-c2ccccc2)CN1 [compound 1373, (2R,4S)-4-([1,1′-Biphenyl]-2-ylmethyl)-N—((S)-1-(((6-amino-2-methylpyridin-3-yl)methyl)amino)-1-oxopropan-2-yl)pyrrolidine-2-carboxamide]	50 to 500 nM
CCCCCN[C@H](CCc1ccccc1)C(=O)N[C@@H](C)C(=O)NCc1ccc(N)nc1C [compound 1377, (R)—N—((S)-1-(((6-Amino-2-methylpyridin-3-yl)methyl)amino)-1-oxopropan-2-yl)-2-(pentylamino)-4-phenylbutanamide]	50 to 500 nM
Cc1nc(N)ccc1CNC(=O)[C@H](C)NC(=O)[C@@H](CCc1ccccc1)NCc1ccc(C(=O)N2CCOCC2)cc1 [compound 1381, (R)—N—((S)-1-(((6-Amino-2-methylpyridin-3-yl)methyl)amino)-1-oxopropan-2-yl)-2-((4-(morpholine-4-carbonyl)benzyl)amino)-4-phenylbutanamide]	500 to 5000 nM
C[C@H](NC(=O)[C@H]1C[C@H](c2ccccc2)CN1)C(=O)NCc1cc(Cl)cc(Cl)c1O [compound 1395, (2R,4R)—N—((S)-1-((3,5-dichloro-2-hydroxybenzyl)amino)-1-oxopropan-2-yl)-4-phenylpyrrolidine-2-carboxamide]	5000 to 50000 nM
Cc1nc(N)ccc1CNC(=O)[C@H](C)NC(=O)[C@H]1C[C@@H](c2ccccc2)CCN1CC(=O)O [compound 1398, 2-((2R,4S)-2-(((S)-1-(((6-Amino-2-methylpyridin-3-yl)methyl)amino)-1-oxopropan-2-yl)carbamoyl)-4-phenylpiperidin-1-yl)acetic acid]	50 to 500 nM
Cc1nc(N)ccc1CNC(=O)[C@H](C)NC(=O)[C@H]1C[C@H](Cc2cc(-c3ccccc3)cs2)CN1 [compound 1399, (2R,4R)—N—((S)-1-(((6-Amino-2-methylpyridin-3-yl)methyl)amino)-1-oxopropan-2-yl)-4-((4-phenylthiophen-2-yl)methyl)pyrrolidine-2-carboxamide]	50 to 500 nM
Cc1nc(N)ccc1CNC(=O)[C@H](C)NC(=O)[C@H]1C[C@H](Cc2cccc(-c3ccccc3)c2)CN1 [compound 1406, (2R,4S)-4-([1,1′-Biphenyl]-3-ylmethyl)-N—((S)-1-(((6-amino-2-methylpyridin-3-yl)methyl)amino)-1-oxopropan-2-yl)pyrrolidine-2-carboxamide]	50 to 500 nM
COc1cc(C[C@@H]2CN[C@@H](C(=O)N[C@@H](C)C(=O)NCc3ccc(N)nc3C)C2)cc(OC)c1 [compound 1407, (2R,4S)—N—((S)-1-(((6-Amino-2-methylpyridin-3-yl)methyl)amino)-1-oxopropan-2-yl)-4-(3,5-dimethoxybenzyl)pyrrolidine-2-carboxamide]	50 to 500 nM
C[C@H](NC(=O)[C@H]1C[C@H](Cc2ccccc2-c2ccc(Cl)s2)CN1)C(=O)NCc1cc(Cl)ccc1-n1cnnn1 [compound 1409, (2R,4S)—N—((S)-1-((5-Chloro-2-(1H-tetrazol-1-yl)benzyl)amino)-1-oxopropan-2-yl)-4-(2-(5-chlorothiophen-2-yl)benzyl)pyrrolidine-2-carboxamide]	500 to 5000 nM
Cc1nc(N)ccc1CNC(=O)[C@H](C)NC(=O)[C@H]1C[C@H](Cc2ccccc2-c2ccc(Cl)s2)CN1 [compound 1410, (2R,4S)—N—((S)-1-(((6-Amino-2-methylpyridin-3-yl)methyl)amino)-1-oxopropan-2-yl)-4-(2-(5-chlorothiophen-2-yl)benzyl)pyrrolidine-2-carboxamide]	500 to 5000 nM
Cc1nc(N)ccc1CNC(=O)[C@H](C)NC(=O)[C@H]1C[C@@H](c2ccccc2)CCN1CCC(=O)O [compound 1411, 3-((2R,4S)-2-(((S)-1-(((6-Amino-2-methylpyridin-3-yl)methyl)amino)-1-oxopropan-2-yl)carbamoyl)-4-phenylpiperidin-1-yl)propanoic acid]	50 to 500 nM
Cc1nc(N)ccc1CNC(=O)[C@H](C)NC(=O)[C@H]1C[C@H](Cc2cccc(C(=O)N3CCC3)c2)CN1 [compound 1420, (2R,4S)—N—((S)-1-(((6-Amino-2-methylpyridin-3-yl)methyl)amino)-1-oxopropan-2-yl)-4-(3-(azetidine-1-carbonyl)benzyl)pyrrolidine-2-carboxamide]	50 to 500 nM
C[C@H](NC(=O)[C@H]1C[C@@H](c2ccccc2)CCN1)C(=O)NCc1cc(Cl)ccc1-n1cnnn1 [compound 1426, (2R,4S)—N—((S)-1-((5-Chloro-2-(1H-tetrazol-1-yl)benzyl)amino)-1-oxopropan-2-yl)-4-phenylpiperidine-2-carboxamide]	< 50 nM
C[C@H](NC(=O)[C@H]1C[C@H](c2ccccc2)CN1)C(=O)NCc1cnc2c(c1)c(Cl)cn2C [compound 1442, (2R,4R)—N—((S)-1-(((3-Chloro-1-methyl-1H-pyrrolo[2,3-b]pyridin-5-yl)methyl)amino)-1-oxopropan-2-yl)-4-phenylpyrrolidine-2-carboxamide]	500 to 5000 nM

Molecular target: mMASP-2 (Mus musculus, UniProt Q91WP0)
Sequence (Q91WP0 20-685): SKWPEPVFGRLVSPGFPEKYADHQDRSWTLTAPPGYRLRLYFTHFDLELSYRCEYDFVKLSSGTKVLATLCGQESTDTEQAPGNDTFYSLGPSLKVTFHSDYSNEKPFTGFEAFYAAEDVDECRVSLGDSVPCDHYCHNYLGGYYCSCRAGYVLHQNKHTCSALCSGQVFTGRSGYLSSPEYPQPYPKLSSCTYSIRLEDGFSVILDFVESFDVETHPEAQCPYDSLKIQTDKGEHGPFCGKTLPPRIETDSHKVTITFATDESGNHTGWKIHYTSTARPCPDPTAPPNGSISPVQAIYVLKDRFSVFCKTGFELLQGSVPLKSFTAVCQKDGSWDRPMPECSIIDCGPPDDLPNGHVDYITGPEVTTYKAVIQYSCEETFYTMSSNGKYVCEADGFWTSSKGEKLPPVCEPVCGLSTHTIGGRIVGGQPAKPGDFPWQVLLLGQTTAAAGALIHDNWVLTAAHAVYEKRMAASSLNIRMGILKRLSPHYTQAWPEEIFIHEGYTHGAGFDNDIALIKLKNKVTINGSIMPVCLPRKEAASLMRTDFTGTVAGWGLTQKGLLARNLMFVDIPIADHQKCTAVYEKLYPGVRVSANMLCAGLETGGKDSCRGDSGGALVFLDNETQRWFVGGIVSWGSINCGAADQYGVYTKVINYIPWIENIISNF
Experiment: Enzymatic assay for mMASP-2
Assay type: biochemical
Conditions: not given

Ki	Compound
< 500 nM	C[C@H](NC(=O)c1cc(-c2ccccc2)c[nH]1)C(=O)NCc1ccc(C(=N)N)cc1 [compound 1030]
< 500 nM	C[C@H](NC(=O)[C@H]1C[C@H](c2ccccc2)CN1)C(=O)NCc1ccc(C(=N)N)cc1 [compound 1036]
< 500 nM	C[C@H](NC(=O)[C@H](N)C1Cc2ccccc2C1)C(=O)NCc1ccc2nc(N)[nH]c2c1 [compound 1059]
< 500 nM	C[C@H](NC(=O)[C@H]1C[C@H](c2ccccc2)CN1)C(=O)NCc1ccc2c(N)nccc2c1 [compound 1090]
< 500 nM	C[C@H](NC(=O)[C@H]1Cc2c([nH]c3ccccc23)CN1)C(=O)NCc1ccc(C(=N)N)cc1 [compound 1097]
< 500 nM	C[C@H](NC(=O)[C@H](N)CCc1cc(Cl)cc(Cl)c1)C(=O)NCc1ccc(C(=N)N)cc1 [compound 1118]

Compound	Ki
Cc1nc(N)ccc1CNC(=O)[C@H](C)NC(=O)[C@H]1C[C@@H](c2cccc(CN)c2)CN1 [compound 1291, (2R,4S)—N—((S)-1-(((6-Amino-2-methylpyridin-3-yl)methyl)amino)-1-oxopropan-2-yl)-4-(3-(aminomethyl)phenyl)pyrrolidine-2-carboxamide Dihydrochloride]	10000 to 25000 nM
C[C@H](NC(=O)[C@H]1C[C@H](c2ccccc2)CN1)C(=O)NCc1ccc(/C(N)=N/O)cc1 [compound 1292]	10000 to 25000 nM
C[C@H](NC(=O)[C@H](N)CCc1ccccc1)C(=O)NCc1cc(Cl)ccc1-n1cnnn1 [compound 1325, (R)-2-amino-N—((S)-1-((5-chloro-2-(1H-tetrazol-1-yl)benzyl)amino)-1-oxopropan-2-yl)-4-phenylbutanamide]	10000 to 25000 nM
Cc1cccc(CNC(=O)[C@H](C)NC(=O)[C@H]2C[C@H](Cc3ccccc3)CN2)c1-n1ncnn1 [compound 1437, (2R,4S)-4-Benzyl-N—((S)-1-((3-methyl-2-(2H-tetrazol-2-yl)benzyl)amino)-1-oxopropan-2-yl)pyrrolidine-2-carboxamide]	2500 to 10000 nM
